# Data as given in US12540128B2, “Substituted pyridazinones as herbicides” (SYNGENTA CROP PROTECTION AG, priority 2019, dated 2026).
# What was measured:
# Assay type in all cases: in vivo
# Details in all cases: 250 g/ha, after 13 days
# [1] = system: Amaranthus retoflexus (AMARE); experiment: B1 Post-Emergence Efficacy Test 1
# Protocol: (§1) Seeds of a variety of test species are sown in standard soil in pots:— Solanum nigrum (SOLNI), Amaranthus retoflexus (AMARE), Setaria faberi (SETFA), Echinochloa crus-galli (ECHCG), Ipomoea hederacea (IPOHE), Lolium perenne (LOLPE). After 8 days cultivation (post-emergence) under controlled conditions in a glasshouse (at 24/16° C., day/night; 14 hours light; 65% humidity), the plants are sprayed with an aqueous spray solution derived from the formulation of the technical active ingredient in acetone/water (50:50) solution containing 0.5% Tween 20 (polyoxyethylene sorbitan monolaurate, CAS RN 9005-64-5). Compounds are applied at 250 g/ha. The test plants are then grown in a glasshouse under controlled conditions in a glasshouse (at 24/16° C., day/night; 14 hours light; 65% humidity) and watered twice daily. After 13 days, the test is evaluated for the percentage damage caused to the plant. The biological activities are assessed on a five point scale (5=80-100%; 4=60-79%; 3=40-59%; 2=20-39%; 1=0-19%). A blank value in the table is indicative that the compound was not tested on that species.
# [2] = system: Echinochloa crus-galli (ECHCG); experiment: B1 Post-Emergence Efficacy Test 1
# Protocol: as §1
# [3] = system: Ipomoea hederacea (IPOHE); experiment: B1 Post-Emergence Efficacy Test 1
# Protocol: as §1
# [4] = system: Lolium perenne (LOLPE); experiment: B1 Post-Emergence Efficacy Test 1
# Protocol: as §1
# [5] = system: Setaria faberi (SETFA); experiment: B1 Post-Emergence Efficacy Test 1
# Protocol: as §1
# [6] = system: Solanum nigrum (SOLNI); experiment: B1 Post-Emergence Efficacy Test 1
# Protocol: as §1
# [7] = system: Amaranthus retoflexus (AMARE); experiment: B3 Pre-Emergence Efficacy Test 1
# Protocol: (§2) Seeds of a variety of test species were sown in standard soil in pots: Solanum nigrum (SOLNI), Amaranthus retoflexus (AMARE), Setaria faberi (SETFA), Echinochloa crus-galli (ECHCG), Ipomoea hederacea (IPOHE), Lolium perenne (LOLPE). After cultivation for one day (pre-emergence) under controlled conditions in a glasshouse (at 24/16° C., day/night; 14 hours light; 65% humidity), the plants were sprayed with an aqueous spray solution derived from the formulation of the technical active ingredient in acetone/water (50:50) solution containing 0.5% Tween 20 (polyoxyethelyene sorbitan monolaurate, CAS RN 9005-64-5). Compounds are applied at 250 g/ha. The test plants were then grown in a glasshouse under controlled conditions (at 24/16° C., day/night; 14 hours light; 65% humidity) and watered twice daily. After 13 days, the test is evaluated for the percentage damage caused to the plant. The biological activities are assessed on a five point scale (5=80-100%; 4=60-79%; 3=40-59%; 2=20-39%; 1=0-19%). A blank value in the table is indicative that the compound was not tested on that species.
# [8] = system: Echinochloa crus-galli (ECHCG); experiment: B3 Pre-Emergence Efficacy Test 1
# Protocol: as §2
# [9] = system: Ipomoea hederacea (IPOHE); experiment: B3 Pre-Emergence Efficacy Test 1
# Protocol: as §2
# [10] = system: Lolium perenne (LOLPE); experiment: B3 Pre-Emergence Efficacy Test 1
# Protocol: as §2
# [11] = system: Setaria faberi (SETFA); experiment: B3 Pre-Emergence Efficacy Test 1
# Protocol: as §2
# [12] = system: Solanum nigrum (SOLNI); experiment: B3 Pre-Emergence Efficacy Test 1
# Protocol: as §2
Compound,"percentage damage caused to the plant, five point scale, AMARE [1]","percentage damage caused to the plant, five point scale, ECHCG [2]","percentage damage caused to the plant, five point scale, IPOHE [3]","percentage damage caused to the plant, five point scale, LOLPE [4]","percentage damage caused to the plant, five point scale, SETFA [5]","percentage damage caused to the plant, five point scale, SOLNI [6]","percentage damage caused to the plant, five point scale, AMARE [7]","percentage damage caused to the plant, five point scale, ECHCG [8]","percentage damage caused to the plant, five point scale, IPOHE [9]","percentage damage caused to the plant, five point scale, LOLPE [10]","percentage damage caused to the plant, five point scale, SETFA [11]","percentage damage caused to the plant, five point scale, SOLNI [12]"
Cc1nn(C)c(=O)c(-c2c(F)ccc(Cl)c2CCc2ccc3c(c2)CCCN3)c1O [Compound 1.019],4 (4=60-79%),3 (3=40-59%),5 (5=80-100%),5 (5=80-100%),5 (5=80-100%),5 (5=80-100%),5 (5=80-100%),1 (1=0-19%),1 (1=0-19%),3 (3=40-59%),4 (4=60-79%),5 (5=80-100%)
CCc1nc2ccc(CCc3c(Cl)ccc(F)c3-c3c(O)c(C)nn(C)c3=O)cc2o1 [Compound 1.028],5 (5=80-100%),5 (5=80-100%),5 (5=80-100%),5 (5=80-100%),5 (5=80-100%),5 (5=80-100%),5 (5=80-100%),1 (1=0-19%),5 (5=80-100%),5 (5=80-100%),5 (5=80-100%),5 (5=80-100%)
Cc1nn(C)c(=O)c(-c2c(F)ccc(Cl)c2CCc2ccnc3ccccc23)c1O [Compound 1.036],5 (5=80-100%),5 (5=80-100%),5 (5=80-100%),5 (5=80-100%),5 (5=80-100%),5 (5=80-100%),5 (5=80-100%),5 (5=80-100%),5 (5=80-100%),5 (5=80-100%),5 (5=80-100%),5 (5=80-100%)
"Cc1nn(C)c(=O)c(-c2c(F)ccc(Cl)c2CCc2ccc3c(c2)CCC(C)N3)c1OC(=O)C(C)C (stereo not drawn) [Compound 3.030, [5-[3-chloro-6-fluoro-2-[2-(2-methyl-1,2,3,4-tetrahydroquinolin-6-yl)ethyl]phenyl]-1,3-dimethyl-6-oxo-pyridazin-4-yl] 2-methylpropanoate]",5 (5=80-100%),5 (5=80-100%),5 (5=80-100%),5 (5=80-100%),5 (5=80-100%),5 (5=80-100%),5 (5=80-100%),5 (5=80-100%),5 (5=80-100%),5 (5=80-100%),5 (5=80-100%),5 (5=80-100%)
"Cc1ccc2cc(CCc3c(Cl)ccc(F)c3-c3c(OC(=O)C(C)C)c(C)nn(C)c3=O)ccc2n1 [Compound 3.034, [5-[3-chloro-6-fluoro-2-[2-(2-methyl-6-quinolyl)ethyl]phenyl]-1,3-dimethyl-6-oxo-pyridazin-4-yl] 2-methylpropanoate]",4 (4=60-79%),4 (4=60-79%),4 (4=60-79%),5 (5=80-100%),5 (5=80-100%),5 (5=80-100%),5 (5=80-100%),5 (5=80-100%),2 (2=20-39%),5 (5=80-100%),5 (5=80-100%),5 (5=80-100%)
Cc1nn(C)c(=O)c(-c2c(F)ccc(Cl)c2/C=C/c2ccc3c(c2)OC(F)(F)O3)c1OC(=O)C(C)C [Compound 4.342],0,1 (1=0-19%),3 (3=40-59%),2 (2=20-39%),1 (1=0-19%),4 (4=60-79%),1 (1=0-19%),0,1 (1=0-19%),0,0,3 (3=40-59%)
